Read-outs that look alike come from different tables or passages of the source.
Experiments:
[1] = test system: Winter Barley cv Saffron; test: Safening of fertilisers, pot trial: phytotoxicity and vigour scores, winter barley; type: in vivo
Text: (§1) The safening system and the fertilizer were applied either simultaneously or sequentially.
(§2) Sprayed: mid-tillering phase (GS23). Winter Wheat: cv Limerick, sown 4 Jun. […] Sprayed: mid-tillering phase (GS23). Lettuce: cv Set, sown 10 Jul. 2008, at one seed per pot, in John Innes No 1 compost. Date of spraying: 30 July; Dates of measurement: 7 August, 14 August, 28 August. Sprayed: 2 true leaf stage.

[2] = test system: Winter Wheat cv Limerick; test: Safening of fertilisers, pot trial: phytotoxicity and vigour scores, winter wheat; type: in vivo; conditions: in vivo
Text: as §1, §2

[3] = test system: Lettuce cv Set; test: Safening of fertilisers, pot trial: phytotoxicity and vigour scores, lettuce; type: in vivo
Text: as §1, §2

[4] = test system: Oilseed rape cv Excalibur; conditions: for Greenness (0-9) (9 = Deeper Green) + 14 Days / Vigour (0-9) (9 = Most Vigour) + 14 days / Greenness (0-9) + 28 Days / Vigour (0-9) + 28 Days: score 0-9
Text: (§3) Safening systems were applied to crops of oilseed rape and winter treated with various herbicides (Bifenox (with insecticide), Carbetamide, Propaquizafop, Chlorotoluron, Isoproturon, Flumioxazin). The safening system and the herbicide were applied to the crops either simultaneously or sequentially.
(§4) Oilseed rape: cv Excalibur, sown 26 Apr. 2008, at two seeds per 9 cm pot, sown in normal pH multi-purpose compost. Date of spraying: 6 June; Dates of measurement/scoring: 13 June, 20 June, 5 July. Winter wheat: cv Alchemy, sown 23 Apr. 2008, at seven seeds per 9 cm pot, sown in normal pH multi-purpose compost. Date of spraying: 24 May; Dates of measurement/scoring: 31 May, 7 June, 21 June. SAF: at least one from class (f) each at <3 g/l, plus at least one from class (c).
(§5) Statistical Layout: Randomised Complete Block trials, under glasshouse conditions, United Kingdom.

[5] = test system: Winter wheat cv Alchemy; test: Safening of herbicides (Chlorotoluron, Isoproturon, Flumioxazin), winter wheat
Text: as §3, §4, §5

[6] = test system: Glycine max (Soybean); test: Root nodulation and safening, soybean, compost of normal pH (Example 7.2); conditions: compost of normal pH (6.5)
Text: (§6) The safener/safening system and the fertiliser were applied to the crops either simultaneously or sequentially.
(§7) Co=100% Cobalt Sulphate (20 g per litre and per hectare). FF1=20 g per litre Cobalt Sulphate (as per Co above) plus “Miracle-Gro” at xl recommended rate (applied at 15 g per 2.5 sq metres). Miracle-Gro contains: 24% N, 4% P, 13% K, plus 0.02% B, 0.03% Cu, 0.19% Fe, 0.05% Mn, 0.001% Mo and 0.03% Zn. FF2=20 g per litre Cobalt Sulphate plus Miracle-Gro at ×2 recommended rate. SAF: at least one from class (f) each at <3 g/l, plus at least one from class (c).
Dates as per Example 7.1 above, but sown in compost of normal pH (6.5). Each treatment represents the mean values for 12 plants, within four replicates. Sowing density 110 kg/ha. Standard inoculant applied at sowing.

[7] = test system: NAVY BEAN cv Mogex; test: Root nodulation and safening, navy bean, compost of normal pH (Example 7.4); conditions: compost of normal pH (6.5)
Text: as §6, §7
NAVY BEAN cv Mogex. Scored/Counted+28 Days after Spraying. Dates as per Example 7.3 Above, but sown in compost of normal pH (6.5). Each treatment represents the mean value from 12 plants, within four replicates. No inoculum applied.

[8] = test system: PEA cv Ragtime; test: Root nodulation, rooting and safening, pea, compost of low pH (Examples 7.5 and 7.7)
Text: as §6, §7
PEA—TRIAL 5—cv Ragtime. Scored/Counted+28 Days after Spraying. Sown in Compost of Low pH (5.0-5.5) on 28 Apr. 2008. Spray Date (VC)=26 May, V1 Date=14 June. Scored/Measured on 9 July. […] No inoculum applied.
Sowing details etc as per Example 7.5.

[9] = test system: PEA cv Ragtime; test: Root nodulation and safening, pea, compost of normal pH (Example 7.6); conditions: compost of normal pH (6.5)
Text: as §6, §7
PEA—TRIAL 7.6—cv Ragtime. Dates as per Example 7.5 above, but sown in compost of normal pH (6.5). […] No inoculum was applied.

[10] = herbicide Bifenox (with insecticide), Table 3.1
[11] = herbicides Carbetamide and Propaquizafop, Table 3.2
[12] = +28 days, herbicide Bifenox (with insecticide), Table 3.1
[13] = +28 days, herbicides Carbetamide and Propaquizafop, Table 3.2
[14] = compost of low pH (5.0-5.5), V1, score 0-9
[15] = low pH compost, application at V1, 0-9 scale

CC(=O)Nc1ccc(O)cc1 [AC, N-(4-hydroxypheyl)acetamide, reference compound]
Vigour (0-9) (9 = Most Vigour) + 14 days ([1]; 336 h): 7.0
Vigour (0-9) + 28 Days ([1]; 672 h): 8.0
Vigour (0-9) (9 = Most Vigour) + 14 days ([1]; Table 1.3, winter barley, general fertilisers, score 0-9, +14 days): 7.0
Vigour (0-9) + 28 Days ([1]; Table 1.3, winter barley, general fertilisers, score 0-9, +28 days): 8.0
Phytotoxicity (0-9) (0 = Dead) + 14 Days [2]: 7.0
Vigour (0-9) (9 = Most Vigour) + 14 days ([3]; 336 h): 8.0
Vigour (0-9) + 28 Days ([3]; 672 h): 8.0
Vigour (0-9) (9 = Most Vigour) + 14 days ([3]; Table 1.8, lettuce, KP/ATS, score 0-9, +14 days): 8.0
Vigour (0-9) + 28 Days ([3]; Table 1.8, lettuce, KP/ATS, score 0-9, +28 days): 8.0
Vigour (0-9) (9 = Most Vigour) + 14 days ([3]; Table 1.9, lettuce, general fertilisers, score 0-9, 9 = Most Vigour, +14 days): 8.0
Vigour (0-9) + 28 Days ([3]; Table 1.9, lettuce, general fertilisers, score 0-9, +28 days): 8.0
Phytotoxicity (0-9) (0 = Dead) + 14 Days ([3]; in vivo): 7.0
Phytotoxicity (0-9) (0 = Dead) + 28 Days ([3]; in vivo): 6.5
Phytotoxicity (0-9) + 28 Days ([4]; score 0-9, 0 = dead, +28 days, herbicides Carbetamide and Propaquizafop, Table 3.2): 8.0
Greenness (0-9) (9 = Deeper Green) + 14 Days [4, 10]: 8.0
Vigour (0-9) (9 = Most Vigour) + 14 days [4, 10]: 8.0
Greenness (0-9) (9 = Deeper Green) + 14 Days [4, 11]: 8.0
Vigour (0-9) (9 = Most Vigour) + 14 days [4, 11]: 8.0
Greenness (0-9) + 28 Days [4, 12]: 8.0
Vigour (0-9) + 28 Days [4, 12]: 8.0
Greenness (0-9) + 28 Days [4, 13]: 8.0
Vigour (0-9) + 28 Days [4, 13]: 8.0
Greenness (0-9) (9 = Deeper Green) + 14 Days ([5]; Table 3.3, no herbicide): 8.0
Greenness (0-9) + 28 Days ([5]; Table 3.3, no herbicide): 8.0
Phytotoxicity (0-9) + 28 Days ([5]; Table 3.3, no herbicide): 8.0
Greenness (0-9) (9 = Deeper Green) + 14 Days ([5]; Table 3.4, no herbicide): 8.0
Greenness (0-9) + 28 Days ([5]; Table 3.4, no herbicide): 8.0
Phytotoxicity (0-9) + 28 Days ([5]; Table 3.4, no herbicide): 8.0
Greenness (0-9) (9 = Deeper Green) + 14 Days ([5]; Table 3.5, no herbicide): 8.0
Greenness (0-9) + 28 Days ([5]; Table 3.5, no herbicide): 8.0
Phytotoxicity (0-9) + 28 Days ([5]; Table 3.5, no herbicide): 8.0
Nodules Per Plant (V1) ([6]; V1, mean of 12 plants): 29.9
Nodulation Score (0-9) (V1) ([6]; V1, score 0-9): 5.5
Phyto-Toxicity Score (0-9) (V1) ([6]; V1, score 0-9): 8.0
Vigour Score (0-9) (V1) ([6]; V1, score 0-9): 6.5
Nodules Per Plant (VC) ([6]; VC): 32.0
Nod Score (0-9) (VC) ([6]; VC, score 0-9): 5.7
Nodules Per Plant (V1) ([7]; V1, +28 days after spraying, no inoculum): 29.5
Nodulation Score (0-9) (V1) ([7]; V1, score 0-9): 4.8
Phyto-Toxicity Score (0-9) (V1) ([7]; V1, score 0-9): 7.0
Vigour Score (0-9) (V1) ([7]; V1, score 0-9): 7.0
Nodules Per Plant (VC) ([7]; VC): 32.1
Nod Score (0-9) (VC) ([7]; VC, score 0-9): 5.0
Nodules Per Plant (V1) ([8]; compost of low pH (5.0-5.5), V1, +28 days after spraying, no inoculum): 16.7
Nodulation Score (0-9) (V1) [8, 14]: 5.0
Phyto-Toxicity Score (0-9) (V1) [8, 14]: 5.2
Vigour Score (0-9) (V1) [8, 14]: 5.1
Nodules Per Plant (VC) ([8]; compost of low pH (5.0-5.5), VC): 17.3
Nod Score (0-9) (VC) ([8]; compost of low pH (5.0-5.5), VC, score 0-9): 5.2
Nodules Per Plant (V1) ([8]; low pH compost, application at V1 (data from Example 7.5)): 16.7
Nodulation Score (0-9) (V1) [8, 15]: 5.0
Phyto-Toxicity Score (0-9) (V1) [8, 15]: 5.2
Rooting Score (0-9) (V1) [8, 15]: 4.2
Nodules Per Plant (V1) ([9]; V1, no inoculum): 15.4
Nodulation Score (0-9) (V1) ([9]; V1, score 0-9): 4.9
Phyto-Toxicity Score (0-9) (V1) ([9]; V1, score 0-9): 7.0
Vigour Score (0-9) (V1) ([9]; V1, score 0-9): 6.7
Nodules Per Plant (VC) ([9]; VC): 16.4
Nod Score (0-9) (VC) ([9]; VC, score 0-9): 5.0

From US20120088667A1, “SAFENING AGENT” (priority 2009, published 2012)
